Source: patent US11071731B2, “Allosteric modulators of the mu opioid receptor” (Chiromics, LLC, priority 2017, dated 2021)
pEC50: −log10 of the molar value.

What was measured:
mu opioid receptor (MOR) [1] = molecular target: T1, mu opioid receptor (MOR) (Homo sapiens, UniProt P35372); assay: PathHunter β-arrestin recruitment assay, PAM mode with EC20 endomorphin-1; assay type: cell-based
How it was run: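 Enzyme fragment complementation read-out: β-gal ED fragment fused to receptor, EA fused to β-arrestin, recruitment restoring β-gal activity detected by chemiluminescence. EC50 and percent maximal response derived for each compound.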

mu opioid receptor (MOR) [2] = molecular target: T1, mu opioid receptor (MOR); assay: Hit Hunter cAMP signaling assay (adenylyl cyclase inhibition), PAM mode with EC20 endomorphin-1; assay type: cell-based
[3] = maximal response for β-arrestin recruitment
[4] = β-arrestin recruitment, read-out: β-arr. EC50
[5] = adenylyl cyclase inhibition, read-out: cAMP EC50
[6] = maximal response for adenylyl cyclase inhibition
[7] = cAMP EC50, adenylyl cyclase inhibition
[8] = maximal response, β-arrestin recruitment
[9] = maximal response, adenylyl cyclase inhibition

T1 sequence (P35372 whole entry, the tested form may be a part): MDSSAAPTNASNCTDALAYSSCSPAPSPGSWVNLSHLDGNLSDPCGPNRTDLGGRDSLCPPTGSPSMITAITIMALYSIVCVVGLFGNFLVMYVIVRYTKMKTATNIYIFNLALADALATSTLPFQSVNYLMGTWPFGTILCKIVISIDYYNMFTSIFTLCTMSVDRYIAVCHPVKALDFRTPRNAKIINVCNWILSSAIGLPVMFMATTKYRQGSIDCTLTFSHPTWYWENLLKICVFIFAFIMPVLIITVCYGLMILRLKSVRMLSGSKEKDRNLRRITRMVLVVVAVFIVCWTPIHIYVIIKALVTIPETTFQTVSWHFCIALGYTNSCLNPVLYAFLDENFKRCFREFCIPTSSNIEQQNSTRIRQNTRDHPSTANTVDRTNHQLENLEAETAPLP

| SMILES | β-arr Max. Resp. (mu opioid receptor (MOR) [1]; [3]) | pEC50 (mu opioid receptor (MOR) [1]; [4]) | pEC50 (mu opioid receptor (MOR) [2]; [5]) | cAMP Max. Resp. (mu opioid receptor (MOR) [2]; [6]) | pEC50 (mu opioid receptor (MOR) [2]; [7]) | further results |
| --- | --- | --- | --- | --- | --- | --- |
| Fc1ccc(Cl)cc1CN1CCOCC1c1cccc(C(F)(F)F)n1 (racemic) [Compound 191] | F (F represents a maximal response of > 60%) | 5.68 to 6.15 | 5.68 to 6.15 | E (E represents a maximal response of 40-60%) |  |  |
| CN(C)c1cccc(C2CCCCN2Cc2cc(Cl)ccc2F)n1 (stereo not drawn) [compound 149] | F (F represents a maximal response of > 60%) | < 5.68 |  | E (E represents a maximal response of 40-60%) | < 5.68 |  |
| O=S(=O)(c1ccc(Cl)cc1)N1CCCCC1c1cncc(F)c1 (racemic) [compound 82] | D (D represents a maximal response of < 40%) | < 5.68 | < 5.68 | D (D represents a maximal response of < 40%) |  |  |
| Fc1cnc(Cl)nc1N1CCCCC1c1cnc2cnccn12 (stereo not drawn) [compound 338] | D (D represents a maximal response of < 40%) | > 6.15 |  | D (D represents a maximal response of < 40%) | > 6.15 |  |
| COc1ccc(C2CCCCN2c2nc(Cl)ncc2C)cc1Br (stereo not drawn) [compound 234] | F (F represents a maximal response of > 60%) | < 5.68 |  | F (F represents a maximal response of > 60%) | < 5.68 |  |
| Fc1cc(C2CC(F)(F)CCN2c2nc(Cl)ncc2F)cc(C(F)(F)F)c1 (stereo not drawn) [compound 198] | F (F represents a maximal response of > 60%) | 5.68 to 6.15 |  | F (F represents a maximal response of > 60%) | 5.68 to 6.15 |  |
| O=S(=O)(c1cccc(Cl)c1)N1CCCCC1c1cccc(C(F)(F)F)c1 (stereo not drawn) [Compound 21] | F (F represents a maximal response of > 60%) | < 5.68 | < 5.68 | F (F represents a maximal response of > 60%) |  |  |
| Fc1cnc(Cl)nc1N1CCCCC1c1cncc(Cl)n1 (stereo not drawn) [compound 277] | E (E represents a maximal response of 40-60%) | < 5.68 |  | D (D represents a maximal response of < 40%) | < 5.68 |  |
| COc1ccc(C2C(C)CCCN2c2nc(Cl)ncc2F)cc1Br (stereo not drawn) [compound 249] | F (F represents a maximal response of > 60%) | < 5.68 | < 5.68 | E (E represents a maximal response of 40-60%) |  |  |
| Fc1cc(C2CCC(OCCN3CCOCC3)CN2c2nc(Cl)ncc2F)cc(C(F)(F)F)c1 (stereo not drawn) [compound 304] | D (D represents a maximal response of < 40%) | < 5.68 | < 5.68 | D (D represents a maximal response of < 40%) |  |  |
| Cc1cc(C2CCCCN2S(=O)(=O)c2ccc(Cl)cc2)ccn1 (racemic) [compound 77] | F (F represents a maximal response of > 60%) | < 5.68 | < 5.68 | D (D represents a maximal response of < 40%) |  |  |
| Fc1ccc(C2C(F)CCCN2c2nc(Cl)ncc2F)cc1Br (stereo not drawn) [compound 210] | F (F represents a maximal response of > 60%) | < 5.68 |  | E (E represents a maximal response of 40-60%) | 5.68 to 6.15 |  |
| CC1CCN(S(=O)(=O)c2ccc(Cl)cc2)C1c1ccc(Cl)cc1 (mixture of isomers) [Compound 88] | E (E represents a maximal response of 40-60%) | < 5.68 | < 5.68 | D (D represents a maximal response of < 40%) |  |  |
| Cc1cnc(Cl)nc1N1CCCCC1c1cccc(C(F)(F)F)c1 (stereo not drawn) [compound 265] | F (F represents a maximal response of > 60%) | < 5.68 |  | E (E represents a maximal response of 40-60%) | < 5.68 |  |
| Fc1ccc(C2C3CCC(C3)N2c2nc(Cl)ncc2F)cc1Br (stereo not drawn) [compound 136] | F (F represents a maximal response of > 60%) | < 5.68 |  | D (D represents a maximal response of < 40%) | < 5.68 |  |
| O=S(=O)(c1ccc(Cl)cc1)N1CCCCC1c1cccc(C(F)(F)F)c1 (stereo not drawn) [compound 18] | F (F represents a maximal response of > 60%) | < 5.68 | 5.68 to 6.15 | D (D represents a maximal response of < 40%) |  | β-arrestin Max Response (mu opioid receptor (MOR) [1]; β-arrestin recruitment, activity switching by MOR PAMs): F (F represents a maximal response of >60%); pEC50 (mu opioid receptor (MOR) [1]; β-arrestin recruitment, activity switching by MOR PAMs, read-out: β-arrestin EC50): < 5.68; cAMP Max Resp. (mu opioid receptor (MOR) [2]; adenylyl cyclase inhibition, activity switching by MOR PAMs): D (D represents a maximal response of < 40%); pEC50 (mu opioid receptor (MOR) [2]; adenylyl cyclase inhibition, activity switching by MOR PAMs, read-out: cAMP EC50): < 5.68 |
| Fc1c(Cl)cccc1CN1CCCCC1c1cccc(C(F)(F)F)n1 (stereo not drawn) [compound 172] | F (F represents a maximal response of > 60%) | 5.68 to 6.15 |  | E (E represents a maximal response of 40-60%) | > 6.15 |  |

| SMILES | β-arr Max. Resp. (mu opioid receptor (MOR) [1]; [3]) | pEC50 (mu opioid receptor (MOR) [1]; [4]) | pEC50 (mu opioid receptor (MOR) [2]; [5]) | cAMP Max. Resp. (mu opioid receptor (MOR) [2]; [6]) | pEC50 (mu opioid receptor (MOR) [2]; [7]) | further results |
| --- | --- | --- | --- | --- | --- | --- |
| Fc1cccc(C2CCCCN2c2nc(Cl)ncc2F)n1 (stereo not drawn) [compound 133] | F (F represents a maximal response of > 60%) | < 5.68 |  | E (E represents a maximal response of 40-60%) | < 5.68 |  |
| FC(F)(F)c1cccc(C2CCCCN2Cc2cc(Cl)cc(Cl)c2)n1 (stereo not drawn) [compound 159] | F (F represents a maximal response of > 60%) | 5.68 to 6.15 |  | E (E represents a maximal response of 40-60%) | 5.68 to 6.15 |  |
| [2H]C1(c2cccc(C(F)(F)F)c2)C(F)CCCN1Cc1cccc(Cl)c1 (stereo not drawn) [compound 204] | F (F represents a maximal response of > 60%) | 5.68 to 6.15 |  | F (F represents a maximal response of > 60%) | 5.68 to 6.15 |  |
| Fc1cnc(Cl)nc1N1CCCCC1c1cnc2ccccn12 (stereo not drawn) [compound 336] | D (D represents a maximal response of < 40%) | > 6.15 |  | D (D represents a maximal response of < 40%) | > 6.15 |  |
| O=S(=O)(c1ccc(Cl)cc1F)N1C2CCC(C2)C1c1ccc(F)c(Br)c1 (stereo not drawn) [Compound 184] | F (F represents a maximal response of > 60%) | < 5.68 | < 5.68 | D (D represents a maximal response of < 40%) |  |  |
| Fc1cccc(C2CCCCN2c2ccnc(Cl)n2)n1 (stereo not drawn) [compound 259] | D (D represents a maximal response of < 40%) | < 5.68 |  | D (D represents a maximal response of < 40%) | < 5.68 |  |
| [2H]C1(c2cccc(C(F)(F)F)c2)C(F)CCCN1c1nc(Cl)ncc1F (stereo not drawn) [compound 207] | F (F represents a maximal response of > 60%) | 5.68 to 6.15 |  | D (D represents a maximal response of < 40%) | 5.68 to 6.15 | β-arr. Max Resp. (mu opioid receptor (MOR) [1]; maximal response for β-arrestin recruitment, Table 3): 116; pEC50 (mu opioid receptor (MOR) [1]; β-arrestin recruitment, Table 3, read-out: β-arr. EC50): 5.93; EC50 (mu opioid receptor (MOR) [2]; cAMP EC50 (nM), adenylyl cyclase inhibition, Table 3): 969 nM; cAMP Max Resp. (mu opioid receptor (MOR) [2]; maximal response for adenylyl cyclase inhibition, Table 3): 34 |
| Fc1ccc(Cl)cc1CN1CCOCC1c1cccc(C(F)(F)F)c1 (racemic) [Compound 193] | F (F represents a maximal response of > 60%) | 5.68 to 6.15 | < 5.68 | F (F represents a maximal response of > 60%) |  |  |
| Cc1ccc(N2CCCCC2c2ccc(F)c(Cl)c2)cc1 (stereo not drawn) [compound 458] |  | < 5.68 |  |  | < 5.68 | β-arr Max. Resp. (mu opioid receptor (MOR) [1]; [8]): E (E represents a maximal response of 40-60%); cAMP Max. Resp. (mu opioid receptor (MOR) [2]; [9]): D (D represents a maximal response of < 40%) |
| Fc1ccc(Cl)cc1CN1C2CCC(C2)C1c1cccc(C(F)(F)F)n1 (stereo not drawn) [compound 444] |  | < 5.68 |  |  | < 5.68 | β-arr Max. Resp. (mu opioid receptor (MOR) [1]; [8]): F (F represents a maximal response of > 60%); cAMP Max. Resp. (mu opioid receptor (MOR) [2]; [9]): D (D represents a maximal response of < 40%) |
| Cc1nnc(C2CCCCN2c2nc(Cl)ncc2F)o1 (stereo not drawn) [compound 363] | D (D represents a maximal response of < 40%) | > 6.15 |  | D (D represents a maximal response of < 40%) | > 6.15 |  |
| Fc1cc(C2CCCCN2Cc2cccc(Cl)c2)cc(C(F)(F)F)c1 (stereo not drawn) [compound 157] | F (F represents a maximal response of > 60%) | < 5.68 |  | E (E represents a maximal response of 40-60%) | < 5.68 |  |
| CC1CCN(S(=O)(=O)c2ccc(Cl)cc2)C1c1ccc(F)c(Cl)c1 (mixture of isomers) [Compound 105] | F (F represents a maximal response of > 60%) | 5.68 to 6.15 | 5.68 to 6.15 | D (D represents a maximal response of < 40%) |  |  |
| Fc1cnc(Cl)nc1N1CCCCC1c1cccc(OC(F)(F)F)n1 (stereo not drawn) [compound 131] | F (F represents a maximal response of > 60%) | 5.68 to 6.15 |  | D (D represents a maximal response of < 40%) | 5.68 to 6.15 |  |
| COc1ncc(F)c(N2CCCCC2c2cccc(C(F)(F)F)c2)n1 (stereo not drawn) [compound 271] | F (F represents a maximal response of > 60%) | < 5.68 |  | E (E represents a maximal response of 40-60%) | 5.68 to 6.15 |  |
| Cc1cc(C)cc(N2CCCCC2c2ccc(F)c(Cl)c2)c1 (stereo not drawn) [compound 471] |  | < 5.68 |  |  | < 5.68 | β-arr Max. Resp. (mu opioid receptor (MOR) [1]; [8]): F (F represents a maximal response of > 60%); cAMP Max. Resp. (mu opioid receptor (MOR) [2]; [9]): D (D represents a maximal response of < 40%) |
| O=S(=O)(c1ccc(Cl)cc1)N1CCCCC1c1ccc(F)nc1 (racemic) [compound 53] | F (F represents a maximal response of > 60%) | < 5.68 | < 5.68 | F (F represents a maximal response of > 60%) |  |  |
